Legend:
ventral prostate weight [1] = assay: Oral androgenic potency, ventral prostate weight assay in orchidectomized immature rats (gavage daily for seven days); assay type: in vivo, Sprague-Dawley rats; details: ventral prostate weight; for oral androgenic activity, times as potent as methyltestosterone: gavage daily for 7 days in 10% ethanol/sesame oil (oily carrier)
Method: (§1) Immature (about 21-day-old) Sprague-Dawley rats were orchidectomized under anesthesia, and randomly assignee to groups of ten animals for each dose level of the active undergoing testing. Each active was dissolved in 10% ethanol/sesame oil and administered by gavage (oral) each day for seven days beginning on the date of the orchidectomy. The animals were sacrificed 24 hours after the last dose, and the ventral prostate and seminal vesicles were excised, cleaned of fat and connective tissue, blotted on moist filter paper and weighed to the nearest 0.1 mg. See, e.g., Hershberger, L. et al, Myotrophic Activity of 19-nortestosterone And Other Steroids Determined By Modified Levator And Muscle Method, Proc. Soc. Exptl. Biol. Med 83 175–180 (1953). Regression analysis was performed by conventional methods using a PROPHET data management system. See, e.g., Bliss, C., The Statistics of Bioassay (Academic Press, New York, 1952); Hollister, C., Nucleic Acids Res. 16 1873–75 (1988). Ventral prostate weight was used as the endpoint because it is the sensitive organ to androgenic stimulation.
as §1, with “(oral) or subcutaneous injection” for “(oral)”, “mg.” for “mg. See, e.g., Hershberger, L. et al, Myotrophic Activity of 19-nortestosterone And Other Steroids Determined By Modified Levator And Muscle Method, Proc. Soc. Exptl. Biol. Med 83 175–180 (1953).”, “system.” for “system. See, e.g., Bliss, C., The Statistics of Bioassay (Academic Press, New York, 1952); Hollister, C., Nucleic Acids Res. 16 1873–75 (1988).”
Immature (about 21-day-old) Sprague-Dawley rats were orchidectomized under anesthesia, and randomly assignee to groups of ten animals for each dose level of the active undergoing testing. Four dosage forms were prepared. The first two forms constituted a solution of each active in 10% ethanol/sesame oil. The third and fourth dosage forms constituted a suspension of each active in an aqueous carrier (as described in Example 2, supra). These dosage forms were then administered by gavage (oral) to separate animal groups each day for seven days beginning on the date of the orchidectomy. Each carrier was also administered (alone) to separate groups of animals as a control. The animals were sacrificed 24 hours after the last dose, and the ventral prostate and seminal vesicles were excised, cleaned of fat and connective tissue, blotted on moist filter paper and weighed to the nearest 0.1 mg. See, e.g., Hershberger, L. et al, Myotrophic Activity of 19-nortestosterone And Other Steroids Determined By Modified Levator And Muscle Method, Proc. Soc. Exptl. Biol. Med. 83 175–180 (1953). Regression analysis was performed by conventional methods using a PROPHET data management system. See, e.g., Bliss, C., The Statistics of Bioassay (Academic Press, New York, 1952); Hollister, C., Nucleic Acids Res. 16 1873–75 (1988). Ventral prostate weight was used as the endpoint because it is the sensitive organ to androgenic stimulation.
Immature (about 21 day old) Sprague male rats were orchidectomized under anesthesia, and randomly assignee to groups often animals for each dose level of the active undergoing testing. Animals were maintained under standard conditions of housing and had free access to food and water. Illumination was controlled for 14 hour periods of light and 10 hours of darkness. Each active was dissolved in 10% ethanol/sesame oil and administered by gavage (oral) each day for seven days beginning on the date of the orchidectomy. […]

ventral prostate weight [2] = assay: Subcutaneous androgenic potency, ventral prostate weight assay in orchidectomized immature rats (injection daily for seven days); assay type: in vivo, Sprague-Dawley rats
Method: as §1, with “(oral) or subcutaneous injection” for “(oral)”, “mg.” for “mg. See, e.g., Hershberger, L. et al, Myotrophic Activity of 19-nortestosterone And Other Steroids Determined By Modified Levator And Muscle Method, Proc. Soc. Exptl. Biol. Med 83 175–180 (1953).”, “system.” for “system. See, e.g., Bliss, C., The Statistics of Bioassay (Academic Press, New York, 1952); Hollister, C., Nucleic Acids Res. 16 1873–75 (1988).”
as §1, with “subcutaneous injection” for “gavage (oral)”, “Bid. Med.” for “Biol. Med”
Immature (about 22-day-old) Sprague-Dawley male rats were orchidectomized under anesthesia, and randomly assignee to groups of ten animals for each dose level of the active undergoing testing. […] Illumination was controlled for 14 hour periods of light and 10 hours of darkness.
Each active was administered by subcutaneous injection of 0.6 mg of test material in aqueous suspending vehicle (ASV) and/or an oily vehicle (10% ethanol/sesame oil) on the day of surgery. Testosterone enanthate in sesame oil was used as a standard. The ventral prostate and seminal vesicles were excised, cleaned of fat and connective tissue, blotted on moist filter paper and weighed to the nearest 0.1 mg. Regression analysis was performed by conventional methods using a PROPHET data management system. Ventral prostate weight was used as the endpoint because it is the sensitive organ to androgenic stimulation.

[3] = gavage daily for 7 days in 10% ethanol/sesame oil

Row | Compound | oral androgenic activity, times as potent as methyltestosterone (ventral prostate weight [1]) [times] | oral androgenic potency relative to methyltestosterone in the same aqueous carrier (ventral prostate weight [1]; gavage daily for 7 days, suspension in aqueous carrier) [times] | subcutaneous androgenic activity relative to testosterone (ventral prostate weight [2]; subcutaneous injection daily for 7 days in 10% ethanol/sesame oil (oily carrier), ventral prostate weight) [times] | oral androgenic activity, times as potent as testosterone bucyclate (1781 V-1) (ventral prostate weight [1]; [3]) | oral androgenic activity, times as potent as the free alcohol (1321 D) (ventral prostate weight [1]; [3]) | oral androgenic activity, times more potent than testosterone (111-C) (ventral prostate weight [1]; [3]) | oral androgenic activity, times more potent than testosterone enanthate (112a) (ventral prostate weight [1]; [3]) | activity after subcutaneous administration (in words) (ventral prostate weight [2]; subcutaneous injection daily for 7 days in 10% ethanol/sesame oil, ventral prostate weight) | Androgenic Potency (activity of corresponding alcohol) (ventral prostate weight [2]; ventral prostate weight assay following subcutaneous administration, alcohol of G = 1.0 (assigned), value is for the free alcohol of the listed ester)
1 | CCCCCCCCCCC(=O)O[C@H]1CC[C@H]2[C@H]3[C@H]([C@@H](C)C[C@]12C)[C@H]1CCC(=O)C=C1C[C@H]3C [Compound II, 7α,11β-dimethyl-17β-hydroxyestr-4-en-3-one 17-undecanoate] | 2.36 | 0.95 | 0.52 | – | – | – | – | – | –
2 | CCCC[C@H]1CC[C@H](C(=O)O[C@H]2CC[C@H]3[C@H]4[C@H]([C@@H](C)C[C@]23C)[C@H]2CCC(=O)C=C2C[C@H]4C)CC1 (relative stereo) [Compound I, 7α,11β-Dimethyl-17β-hydroxy-4-estren-3-one 17β-trans-4-n-butylcyclohexane carboxylate] | 3.77 | – | – | at least 4 times | at least 4 times | 10–100 times | 10–100 times | relatively weak activity | 19.3
